Source: paper PMC6263107 (Journal of Enzyme Inhibition and Medicinal Chemistry, 2018)
Values joined by “and” are separate entries in the source; they are usually repeats but may differ in a detail not shown here. Identical values can stand only once. Like-named read-outs stand apart in the source and are kept apart here.

What was measured:
[1] = Oxygen radical absorbance capacity assay (ORAC-FL); settings: ORAC-FL, Trolox equivalents
Description: The antioxidant activity of KTs was determined using the ORAC-FL method described by Dávalos et al.[30] using fluorescein as a fluorescent probe with minor modification. Briefly, fluorescein and antioxidant were incubated in a black 96-well microplate (Nunc) for 15 min at 37 °C. The 2,2’-azobis(amidinopropane) dihydrochloride (AAPH) was then added quickly using the built-in injector of Varioskan Flash plate reader (Thermo Scientific).
Results are expressed in the Trolox equivalents (TE) unit in relation to radical scavenging properties of Trolox.

[2] = target: T1, hAChE (Homo sapiens, UniProt P22303); test: biochemical
T1 construct: 10 µl of cholinesterase obtained from human erythrocyte hemolyzate, out of blood samples; from tissue; host or cells: human erythrocyte hemolysate from blood samples
Description: This blend was preincubated for 5 min and 20 µl of 0.01 M substrate (ATCh or BTCh) was added to initiate the reaction. […] The IC50 values are expressed as a mean ± SEM.
Next, as planned at the beginning of the project, the analysis of the antioxidant capacity of KT 2a–d, 2f–h, and 2l was carried out.

[3] = in vitro; format: cell-based; settings: human
Description: (§1) The culture medium was refreshed after 24 h of incubation and 100 µl of six different concentrations (1–1000 µM) of test compounds or DMSO (0.1%) were then added. The cell viability was monitored by colourimetric assay with 3-[4,5-dimethylthiazol-2-yl]-2,5-diphenyl-tetrazolium bromide (MTT).
(§2) In this sense, all new KTs were submitted to the in vitro cell viability test (MTT assay) using human hepatocellular carcinoma cell line (HepG2)[26], as the most accepted probe to evaluate hepatotoxic effects. For this experiment, six different concentrations from 1 to 1000 µM were used.

[4] = target: EeAChE (Electrophorus electricus, UniProt O42275); test: biochemical; settings: mean ± SEM
Description: (§3) Ellman’s protocol was followed to perform the anticholinesterasic activity. Briefly, the reaction was carried out in a final volume of 3 ml of a phosphate-buffered solution (0.1 M) at pH =8.0 containing (2.625 µl, 0.35 mM) of 5,5’-dithiobis-2-nitrobenzoic acid (DTNB), 40 µl 1% w/v Bovine Albumin Serum phosphate-buffered solution (BSA), (29 µl, 0.035 U/ml) of EeAChE or (60 µl, 0.05 U/ml) of eqBuChE, and 3 µl of tested compound, which were incubated for 10 min. Then, the acetylthiocholine iodide or butyrylthiocholine was added, and the reaction was incubated for additional 15 min. The activity in absence of compound was used as control.

[5] = target: T2, eqBuChE (Equus caballus, UniProt P81908); test: biochemical; settings: for IC50: mean ± SEM; for inhibition at 10 µM: Table 2 footnote b
T2 construct: serum horse BuChE (eqBuChE); from tissue; host or cells: horse serum
Description: as §3

[6] = test system: SH-SY5Y cells; test: Neuroprotection against oligomycin/rotenone-induced cell death (MTT); format: cell-based, human; settings: O 10 µM / R 30 µM
Description: (§4) SH-SY5Y cell culture and treatment with compounds 2b–d and 2f. The cultures of human SH-SY5Y neuroblastoma cells kept under a CO2/air (5%/95%) humidified atmosphere at 37 °C for 24 h were treated with 100 µl of the test compounds or DMSO (0.1%) in DMEM/F12 (1:1) medium supplemented with 1% fetal bovine serum, 1X non-essential amino acids, 100 units/ml penicillin and 10 mg/ml streptomycin. Treatment medium was renewed every day for up to 48 h of treatment. MTT assay was then performed.
(§5) SH-SY5Y cells were seeded in 96-well culture plates at a density of 8 × 10^4 cells per well in DMEM/F12 (1:1) medium supplemented with 10% fetal bovine serum, 1X non-essential amino acids, 100 units/mL penicillin and 10 mg/mL streptomycin (Dutscher, France). After 24 h of incubation, the cultures were treated with 100 µl of the test compounds or DMSO (0.1%) in the same medium. Following 24 h, the cells were co-incubated with oligomycin A (10 µM)/rotenone (30 µM) (Sigma, France) or Aβ 1–40 (30 µM) with or without the tested compounds 2b–d and 2f at nontoxic concentrations against cells for an additional period of 24 h. MTT assay was then performed to determine the % of cell viability.
(§6) The ability to prevent the human neuroblastoma cell line SH-SY5Y cell death induced by toxic insults such as Αβ 1–40, implicated in ROS production and apoptosis-related signalling pathways, and oligomycin/rotenone (O/R)[39], was then assayed to determine the neuroprotective capacity of the four less hepatotoxic KTs 2b–d and 2f at nontoxic concentration against SH-SY5Y 3 and 10 µM, using melatonin and KA as reference molecules. For the evaluation of the neuroprotective effect, the cytotoxicity of O/R (10 µM/30 µM) on SH-SY5Y cell viability was determined as well as the toxicity of the selected KTs 2b–d and 2f at.

[7] = test system: HepG2 cells; test: in vitro; format: cell-based; settings: concentrations up to 1000 µM
Description: as §1, §2

[8] = test system: SH-SY5Y cells; test: Neuroprotection against Aβ1–40 peptide-induced cell death (MTT); format: cell-based, human; settings: for Aβ1–40 (%) neuroprotection: Aβ 1–40 30 µM
Description: as §4, §5, §6

[9] = test system: SH-SY5Y cells; set-up: method as in PMID 27736061; settings: Aβ 1–40 30 µM, cited from earlier work
[10] = test system: SH-SY5Y cells; set-up: method as in PMID 27736061; settings: O 10 µM / R 30 µM, cited from earlier work
[11] = HepG2 cells, 1 µM, percent of cell viability vs DMSO-treated control, read-out: HepG2 cell viability
[12] = HepG2 cells, 3 µM, percent of cell viability vs DMSO-treated control, read-out: HepG2 cell viability
[13] = HepG2 cells, 10 µM, percent of cell viability vs DMSO-treated control, read-out: HepG2 cell viability
[14] = HepG2 cells, 30 µM, percent of cell viability vs DMSO-treated control, read-out: HepG2 cell viability
[15] = HepG2 cells, 100 µM, percent of cell viability vs DMSO-treated control, read-out: HepG2 cell viability
[16] = HepG2 cells, 300 µM, percent of cell viability vs DMSO-treated control, read-out: HepG2 cell viability
[17] = HepG2 cells, 1000 µM, percent of cell viability vs DMSO-treated control, read-out: HepG2 cell viability

T1 sequence (P22303 32-617 isoform P22303-2 limits assumed): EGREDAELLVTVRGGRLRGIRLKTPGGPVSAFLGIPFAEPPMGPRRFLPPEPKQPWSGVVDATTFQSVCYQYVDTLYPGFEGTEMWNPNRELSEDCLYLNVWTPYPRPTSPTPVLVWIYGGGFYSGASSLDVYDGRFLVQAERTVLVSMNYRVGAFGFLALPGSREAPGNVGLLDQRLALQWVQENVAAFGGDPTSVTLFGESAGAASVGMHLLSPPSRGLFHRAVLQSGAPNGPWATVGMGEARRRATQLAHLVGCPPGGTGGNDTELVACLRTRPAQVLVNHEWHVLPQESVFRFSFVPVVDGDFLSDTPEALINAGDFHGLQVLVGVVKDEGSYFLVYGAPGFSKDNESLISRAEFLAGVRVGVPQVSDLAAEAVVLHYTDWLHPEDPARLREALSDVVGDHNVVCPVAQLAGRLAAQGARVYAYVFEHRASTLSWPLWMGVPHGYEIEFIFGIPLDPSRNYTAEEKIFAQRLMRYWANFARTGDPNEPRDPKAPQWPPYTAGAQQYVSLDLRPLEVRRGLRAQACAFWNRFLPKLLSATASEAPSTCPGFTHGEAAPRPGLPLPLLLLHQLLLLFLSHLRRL
T2 sequence (P81908 whole entry): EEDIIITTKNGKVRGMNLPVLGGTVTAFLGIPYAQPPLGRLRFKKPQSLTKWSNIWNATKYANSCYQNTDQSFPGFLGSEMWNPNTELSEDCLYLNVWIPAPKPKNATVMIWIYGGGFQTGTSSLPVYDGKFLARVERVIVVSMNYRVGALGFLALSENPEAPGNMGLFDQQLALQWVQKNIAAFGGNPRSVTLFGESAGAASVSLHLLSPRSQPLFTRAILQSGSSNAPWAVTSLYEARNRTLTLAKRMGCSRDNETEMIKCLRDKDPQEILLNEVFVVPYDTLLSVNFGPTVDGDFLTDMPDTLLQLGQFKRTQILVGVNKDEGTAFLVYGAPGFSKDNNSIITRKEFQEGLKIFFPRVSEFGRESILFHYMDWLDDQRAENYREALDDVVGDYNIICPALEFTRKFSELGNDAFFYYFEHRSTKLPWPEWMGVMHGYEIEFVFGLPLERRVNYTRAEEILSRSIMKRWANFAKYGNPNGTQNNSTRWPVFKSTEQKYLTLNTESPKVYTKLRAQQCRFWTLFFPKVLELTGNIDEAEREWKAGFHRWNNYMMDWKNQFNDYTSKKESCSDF
Sequence of EeAChE (O42275 24-633): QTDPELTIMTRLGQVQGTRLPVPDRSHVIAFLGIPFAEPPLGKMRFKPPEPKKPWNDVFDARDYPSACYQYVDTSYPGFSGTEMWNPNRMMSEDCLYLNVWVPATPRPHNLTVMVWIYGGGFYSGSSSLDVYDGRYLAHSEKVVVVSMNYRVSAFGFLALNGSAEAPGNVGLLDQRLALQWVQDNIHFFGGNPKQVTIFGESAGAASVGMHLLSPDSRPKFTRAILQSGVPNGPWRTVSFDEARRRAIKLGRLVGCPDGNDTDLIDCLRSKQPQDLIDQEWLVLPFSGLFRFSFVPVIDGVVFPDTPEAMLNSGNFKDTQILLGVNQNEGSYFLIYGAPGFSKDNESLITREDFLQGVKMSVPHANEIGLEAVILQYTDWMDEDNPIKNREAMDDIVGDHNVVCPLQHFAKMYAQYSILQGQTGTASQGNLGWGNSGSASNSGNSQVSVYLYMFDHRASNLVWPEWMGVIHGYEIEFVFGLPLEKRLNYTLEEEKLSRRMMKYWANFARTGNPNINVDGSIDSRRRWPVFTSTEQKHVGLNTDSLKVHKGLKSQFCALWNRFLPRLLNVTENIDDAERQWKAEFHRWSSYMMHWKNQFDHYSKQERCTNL

SMILES | ORAC [1] | viability at 1 µM [3, 11] | viability at 3 µM [3, 12] | viability at 10 µM [3, 13] | viability at 30 µM [3, 14] | viability at 100 µM [3, 15] | viability at 300 µM [3, 16] | viability at 1000 µM [3, 17] | IC50 [4] | IC50 [5] | also measured
COc1cc(/C=C/C(=O)O)ccc1O [FA, ferulic acid, reference compound] | 3.74±0.22 TE and 3.74 TE |  |  |  |  |  |  |  |  |  | 
Nc1c2c(nc3c1C(c1ccccc1)c1oc(CO)cc(=O)c1O3)CCCC2 (stereo not drawn) [KT2a] | 2.58±0.22 TE and 2.58 TE | 96.8 ± 1% | 94.9 ± 2.9% | 99.3 ± 1.7% | 105 ± 5.3% | 108 ± 5% | 95 ± 3.4% | 50.3 ± 5.7% | 3.3 ± 0.09 µM | 12.15 ± 0.09 µM | inhibition at 10 µM ([2]; at 10 μM, Table 2 footnote b): < 50%
Cc1ccc(C2c3oc(CO)cc(=O)c3Oc3nc4c(c(N)c32)CCCC4)cc1 (stereo not drawn) [KT2b] | 2.96±0.18 TE | 105 ± 3.1% | 110 ± 3.2% | 105 ± 1.9% | 107 ± 2.9% | 113 ± 8.4% | 108 ± 5.7% | 87.9 ± 5.2% | 1.4 µM | 10.09 ± 0.09 µM | IC50 ([2]; mean ± SEM): 13.7 ± 1.7 µM; O/R (%) neuroprotection ([6]; compound 3 µM): 19.66 ± 0.07%; O/R (%) neuroprotection ([6]; compound 10 µM): 3.65 ± 0.07%; HepG2 toxicity [7]: no significant toxicity; Aβ1–40 (%) neuroprotection ([8]; compound 3 µM): 27.85 ± 0.15 %; Aβ1–40 (%) neuroprotection ([8]; compound 10 µM): np; neuroprotective activity ([8]; on any of the toxic insults investigated (O/R, Aβ 1–40)): very poor neuroprotective activity
COc1ccccc1C1c2oc(CO)cc(=O)c2Oc2nc3c(c(N)c21)CCCC3 (stereo not drawn) [KT2c] | 6.05±0.41 TE and 6.05 TE | 94.7 ± 2.4% | 103 ± 2.8% | 99 ± 1.1% | 98.2 ± 2.2% | 96.1 ± 1.5% | 88.5 ± 7.1% | 70.7 ± 7.7% | 2.39 ± 0.02 µM |  | inhibition at 10 µM ([2]; at 10µM, Table 1S footnote c): < 50%; O/R (%) neuroprotection ([6]; compound 3 µM): 12.18 ± 0.08%; O/R (%) neuroprotection ([6]; compound 10 µM): 16.56 ± 0.02%; inhibition at 10 µM [5]: < 50%; Aβ1–40 (%) neuroprotection ([8]; compound 3 µM): np; Aβ1–40 (%) neuroprotection ([8]; compound 10 µM): np
COc1ccc(C2c3oc(CO)cc(=O)c3Oc3nc4c(c(N)c32)CCCC4)cc1 (stereo not drawn) [KT2e] | 4.46±0.27 TE | 95.5 ± 5.5% | 96.1 ± 7.1% | 95.9 ± 5.6% | 98.3 ± 3.8% | 86.1 ± 3.8% | 70.9 ± 4.5% | 41.7 ± 3% | 1.14 ± 0.02 µM | 7.57 ± 0.13 µM | 
Nc1c2c(nc3c1C(c1ccccc1F)c1oc(CO)cc(=O)c1O3)CCCC2 (stereo not drawn) [KT2f] | 3.85±0.42 TE | 108 ± 6.2% | 96.1 ± 2.5% | 99.2 ± 2.8% | 102 ± 7.1% | 101 ± 9.2% | 95.3 ± 4.1% | 64 ± 8% | 2.11 ± 0.01 µM | 6.69 ± 0.1 µM | inhibition at 10 µM ([2]; at 10 μM, Table 2 footnote b): < 50%; O/R (%) neuroprotection ([6]; compound 3 µM): 16.50 ± 0.07%; O/R (%) neuroprotection ([6]; compound 10 µM): np; Aβ1–40 (%) neuroprotection ([8]; compound 3 µM): 25.10 ± 0.06 %; Aβ1–40 (%) neuroprotection ([8]; compound 10 µM): 4.1 ± 0.04%
Nc1c2c(nc3c1C(c1cccc(F)c1)c1oc(CO)cc(=O)c1O3)CCCC2 (stereo not drawn) [KT2g] | 4.34±0.17 TE | 101 ± 7.1% | 96.5 ± 7.4% | 99.1 ± 3.8% | 109 ± 6.1% | 103 ± 6.4% | 90.5 ± 9.6% | 62.6 ± 9.7% | 2.14 ± 0.12 µM | 4.54 ± 0.2 µM | 
Nc1c2c(nc3c1C(c1ccc(F)cc1)c1oc(CO)cc(=O)c1O3)CCCC2 (stereo not drawn) [KT2h] | 4.69±0.18 TE | 97.4 ± 2.3% | 95.9 ± 3.8% | 100 ± 1.5% | 101.4 ± 0.6% | 102 ± 1.8% | 87.2 ± 6.7% | 55.3 ± 6% | 3.44 ± 0.04 µM |  | inhibition at 10 µM [5]: < 50%
Nc1c2c(nc3c1C(c1ccccc1Cl)c1oc(CO)cc(=O)c1O3)CCCC2 (stereo not drawn) [KT2i] | 4.84±0.06 TE | 98.6 ± 1.4% | 100 ± 1.9% | 99.4 ± 1.2% | 105 ± 2.6% | 95.2 ± 4.7% | 64.4 ± 6.3% | 23.1 ± 6% | 0.76 ± 0.09 µM | 8.54 ± 0.12 µM | 
Nc1c2c(nc3c1C(c1cccc(Cl)c1)c1oc(CO)cc(=O)c1O3)CCCC2 (stereo not drawn) [KT2j] | 4.67±0.31 TE | 97.6 ± 2% | 101 ± 5.4% | 105 ± 5.5% | 99.6 ± 2.4% | 102 ± 6.9% | 52.7 ± 8.3% | 14.5 ± 6.4% | 0.82 ± 0.05 µM | 4.19 ± 0.11 µM | 
Nc1c2c(nc3c1C(c1cccc(Br)c1)c1oc(CO)cc(=O)c1O3)CCCC2 (stereo not drawn) [KT2k] | 2.61±0.11 TE | 101 ± 4.8% | 104 ± 8.9% | 94.9 ± 2.6% | 95.8 ± 2.5% | 101 ± 3.1% | 60.1 ± 10.4% | 37.2 ± 5.9% | 0.74 ± 0.08 µM | 3.9 ± 0.09 µM | 
Nc1c2c(nc3c1C(c1c(Cl)cccc1Cl)c1oc(CO)cc(=O)c1O3)CCCC2 (stereo not drawn) [KT2l] | 6.14±0.40 TE and 6.14 TE | 99.9 ± 2.7% | 102 ± 2.3% | 102 ± 2.6% | 99.9 ± 3.2% | 88.9 ± 8% | 68.3 ± 9.3% | 50.5 ± 7.5% | 2.12 ± 0.09 µM |  | inhibition at 10 µM [5]: < 50%
COc1ccc2[nH]cc(CCNC(C)=O)c2c1 [Melatonin, melatonin] |  |  |  |  |  |  |  |  |  |  | Aβ1–40 (%) neuroprotection ([9]; compound 1 µM): 35.5 ± 4.1 %; Aβ1–40 (%) neuroprotection ([9]; compound 3 µM): 60.2 ± 3.57 %; O/R (%) neuroprotection ([10]; compound 1 µM): 50.1 ± 3.42 %; O/R (%) neuroprotection ([10]; compound 3 µM): 59.1 ± 4.50 %
Nc1c2c(nc3ccccc13)CCCC2 [Tacrine, tacrine, reference compound] | 0.2 ± 0.1 TE |  |  |  |  |  |  |  |  |  | viability at 1 µM [3]: 112 ± 4%; viability at 3 µM [3]: 114 ± 4.8%; viability at 10 µM [3]: 108 ± 3.4%; viability at 30 µM [3]: 110 ± 4.2%; viability at 100 µM [3]: 102 ± 2.4%; viability at 300 µM [3]: 42.4 ± 2%; viability at 1000 µM [3]: 10.9 ± 2%
